Legend:
[1] = molecular target: T1, hBChE (BChE from human plasma; serum hBChE) (Homo sapiens, UniProt P06276); experiment: Ellman assay, […] nm; format: biochemical
T1 construct: native, commercial from human plasma / serum (Sigma-Aldrich)

[2] = molecular target: T2, hAChE (recombinant human AChE; AChE from human erythrocytes in Table 1) (Homo sapiens, UniProt P22303); experiment: Ellman assay, […] nm; format: biochemical
T2 construct: commercial recombinant human AChE (Sigma-Aldrich) per methods
T2 sequence (P22303 32-614): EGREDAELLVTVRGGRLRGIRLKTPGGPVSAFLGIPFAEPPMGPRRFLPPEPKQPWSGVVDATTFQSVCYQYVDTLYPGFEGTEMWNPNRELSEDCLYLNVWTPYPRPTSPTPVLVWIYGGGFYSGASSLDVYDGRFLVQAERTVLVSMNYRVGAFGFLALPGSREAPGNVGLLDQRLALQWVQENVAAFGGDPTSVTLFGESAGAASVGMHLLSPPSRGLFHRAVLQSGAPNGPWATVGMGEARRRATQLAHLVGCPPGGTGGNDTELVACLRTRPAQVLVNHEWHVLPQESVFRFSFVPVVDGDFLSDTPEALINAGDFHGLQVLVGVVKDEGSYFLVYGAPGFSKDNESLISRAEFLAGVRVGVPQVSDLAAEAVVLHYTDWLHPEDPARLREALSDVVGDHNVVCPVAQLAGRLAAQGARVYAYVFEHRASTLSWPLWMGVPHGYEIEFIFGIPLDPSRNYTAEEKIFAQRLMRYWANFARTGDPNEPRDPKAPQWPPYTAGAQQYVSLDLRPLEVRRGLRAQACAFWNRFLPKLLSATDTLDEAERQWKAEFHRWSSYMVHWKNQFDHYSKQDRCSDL

T1 sequence (P06276 29-602): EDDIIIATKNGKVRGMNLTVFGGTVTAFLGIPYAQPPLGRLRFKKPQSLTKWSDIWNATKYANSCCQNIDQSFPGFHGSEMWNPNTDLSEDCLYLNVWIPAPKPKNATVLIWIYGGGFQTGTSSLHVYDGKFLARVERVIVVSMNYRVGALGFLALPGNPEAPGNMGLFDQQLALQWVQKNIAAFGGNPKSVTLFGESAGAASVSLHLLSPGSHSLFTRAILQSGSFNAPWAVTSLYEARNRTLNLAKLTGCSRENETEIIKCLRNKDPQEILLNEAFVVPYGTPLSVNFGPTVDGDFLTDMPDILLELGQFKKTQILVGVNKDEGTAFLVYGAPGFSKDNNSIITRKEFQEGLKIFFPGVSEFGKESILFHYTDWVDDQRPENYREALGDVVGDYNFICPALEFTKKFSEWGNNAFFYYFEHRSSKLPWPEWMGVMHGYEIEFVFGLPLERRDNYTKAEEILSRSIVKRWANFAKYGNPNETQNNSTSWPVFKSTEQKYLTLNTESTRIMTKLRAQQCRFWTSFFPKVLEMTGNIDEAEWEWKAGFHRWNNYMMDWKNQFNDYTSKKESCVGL

SMILES	IC50 [1] [nM]	IC50 [2] [nM]
CCN(CCCCn1c(C)cc(=O)n(CCCCN(CC)Cc2ccccc2C#N)c1=O)Cc1ccccc1C#N [2a, 1,3-bis[4-(o-Nitrilebenzylethylamino)butyl]-6-methyluracil]	65000	7 ± 0.5
CCN(CCCCn1c(=O)c2ccccc2n(CCCCN(CC)Cc2ccccc2C#N)c1=O)Cc1ccccc1C#N [4a, 1,3-bis[4-(o-Nitrilebenzylethylamino)butyl]-quinazoline-2,4-dione]	2620 ± 200	5520 ± 400
Cc1cc(=O)n(CCCCCN=Cc2ccccc2C#N)c(=O)n1CCCCCN=Cc1ccccc1C#N [compound 13, 1,3-bis[5-(o-Nitrilebenzyl)aldiminopentyl]-6-methyluracil]	2160 ± 150	2320 ± 170
Cc1cc(=O)n(CCCCCNCc2ccccc2C#N)c(=O)n1CCCCCNCc1ccccc1C#N [compound 3, 1,3-bis[5-(o-Nitrilebenzylamino)pentyl]-6-methyluracil]	1800 ± 170	480 ± 30
